Source: patent publication US20030040515A1, “Regulation of platelet adhesion and aggregation” (priority 2002, published 2003)

Experiments:
[1] = system: vWF depolymerizing activity of BAECcm; assay: Inhibitor profile of the vWF depolymerizing activity of BAEC conditioned medium; type: biochemical; conditions: measured by agarose gel electrophoresis or collagen binding; BAECcm treated with agent
purified human vWF = target: T1, purified human vWF (Homo sapiens, UniProt P04275+P07996); assay: ELISA of salt-resistant complexes between TSP-1 and vWF; type: binding
T1 construct: Purified vWF from human plasma was obtained from the Baker Medical Research Institute; TSP-1 was purified to homogeneity from pooled outdated human platelet concentrates; tissue Baker Medical Research Institute, Melbourne (vWF); host or cells: human plasma (vWF); human platelet concentrates (TSP-1)
Excerpt: The first step in reduction of a disulfide bond is nucleophilic attack on the substrate disulfide bond by a reductant thiol which results in formation of a disulfide-linked complex between the substrate and the reductant. Release of the reductant from the complex requires nucleophilic attack on the disulfide linkage by another thiol, usually of the reductant. We reasoned that N-ethylmaleimide (NEM, Sigma, St. Louis, Mo.) might trap intermediate covalent complexes of TSP-1 and vWF by blocking the TSP-1 thiol responsible for separating TSP-1 and vWF. Maleimides react rapidly and specifically with cysteine thiols at neutral pH. This prediction was tested by measuring formation of salt-resistant complexes between TSP-1 and vWF and the effect of the thiol-blocking reagent, NEM, on complex formation.
Purified vWF from human plasma was obtained from the Baker Medical Research Institute, Melbourne and was purified according to Booth et at. (1984). The vWF (100 μl of 5 μg per ml in 0.1M NaHCO3, pH 8.3 buffer) was adsorbed to Nunc PolySorp 96 well plates overnight at 4° C. in a humid environment. […] Wells were washed three times with Hepes buffer and the peroxidase detected as described previously (Favaloro et al., 1991). […]

[2] = pH 8; cited from earlier work
purified vWF = purified vWF (Homo sapiens, UniProt P04275); assay: Effect of purified reductants or thiol reagents on the average multimer size of purified vWF (agarose gel electrophoresis); type: biochemical; set-up: Purified vWF from human plasma was obtained from the Baker Medical Research Institute; tissue Baker Medical Research Institute, Melbourne; host or cells: human plasma; conditions: incubation of vWF with IAM or NEM alone
vWF = target: T2, vWF (Homo sapiens, UniProt P04275); assay: Reduction in average multimer size of vWF in TTP plasma (agarose gel, collagen binding/vWF antigen); type: biochemical; conditions: plasma from a patient with TTP
T2 construct: from tissue; host or cells: plasma of a TTP patient (vWF); human platelet concentrates (TSP-1)
Procedure: TTP plasma was incubated with 20 mM Hepes, 0.14M NaCl, 1 mM CaCl2, 1 mM MgCl2, pH 7.4 buffer, conditioned media of HMEC-1 cells or the Hepes buffer containing TSP-1 for 1 or 24 hours at 37° C. Aliquots of the reactions were diluted 10-fold in the Hepes buffer and assayed for collagen binding affinity and vWF antigen as described by Favaloro et al. (1991). On some occasions, aliquots of the reactions were resolved on 1% agarose gel electrophoresis (Ruggeri and Zimmerman, 1980), transferred to PVDF membrane (DuPont NEN, Boston, Mass.), blotted with 2 μg per ml of horse radish peroxidase conjugated anti-vWF polyclonal antibodies (DAKO Corporation, Carpinteria, Calif.) and visualized using chemiluminescence (DuPont NEN, Boston, Mass.).
TSP-1 is a major component of platelet α-granules which is secreted upon platelet activation and aggregation. TSP-1 was purified to homogeneity from pooled outdated human platelet concentrates (Murphy-Ullrich and Mosher. 1985; Hogg et al., 1997) and tested for vWF reductase activity. Buffers containing 0.1 mM CaCl2 were used throughout the chromatographic purification of TSP1. […] In particular, the very large multimers were lost (see bracket in FIG. 3A). […] TSP-1-mediated reduction in vWF multimer size was concentration- and time-dependent (FIG. 3B). Three different preparations of platelet TSP-1 had the same vWF reducing activity (not shown). It is noteworthy that the molar ratio of TSP-1 to vWF influenced the extent of reduction in vWF multimer size (FIG. 3B). The vWF reductase activity in endothelial cell conditioned medium is inhibited by EDTA. In accordance with this observation, chelation of Ca^2+ with EDTA ablated the vWF reductase activity of TSP-1 (not shown).

plasma vWF = target: T3, plasma vWF (Mus musculus, UniProt Q8CIZ8); assay: Reduction in the average multimer size of vWF by TSP-1 in vivo; conditions: Balb c mice; 1 mg per kg intraperitoneal; plasma 24 hours later; p<0.05 vs buffer vehicle
T3 construct: from tissue; host or cells: plasma of Balb c mice (in vivo)
Procedure: The ability of TSP-1 to reduce the average multimer size of vWF in vivo was examined by administering TSP-1 to mice via intraperitoneal injection and measuring the consequence for the average multimer size of plasma vWF. Balb c mice (7 to 9 weeks of age) were administered either buffer vehicle (n=4) or 1 mg per kg purified human platelet TSP-1 (n=4) via 0.1 ml intraperitoneal injections. There were 2 male and 2 female mice in each group. Blood was collected by cardiac puncture into EDTA 24 hours later and the plasma was analyzed in triplicate for vWF antigen levels and collagen binding affinity.

T3 sequence (Q8CIZ8 764-2813 limits assumed): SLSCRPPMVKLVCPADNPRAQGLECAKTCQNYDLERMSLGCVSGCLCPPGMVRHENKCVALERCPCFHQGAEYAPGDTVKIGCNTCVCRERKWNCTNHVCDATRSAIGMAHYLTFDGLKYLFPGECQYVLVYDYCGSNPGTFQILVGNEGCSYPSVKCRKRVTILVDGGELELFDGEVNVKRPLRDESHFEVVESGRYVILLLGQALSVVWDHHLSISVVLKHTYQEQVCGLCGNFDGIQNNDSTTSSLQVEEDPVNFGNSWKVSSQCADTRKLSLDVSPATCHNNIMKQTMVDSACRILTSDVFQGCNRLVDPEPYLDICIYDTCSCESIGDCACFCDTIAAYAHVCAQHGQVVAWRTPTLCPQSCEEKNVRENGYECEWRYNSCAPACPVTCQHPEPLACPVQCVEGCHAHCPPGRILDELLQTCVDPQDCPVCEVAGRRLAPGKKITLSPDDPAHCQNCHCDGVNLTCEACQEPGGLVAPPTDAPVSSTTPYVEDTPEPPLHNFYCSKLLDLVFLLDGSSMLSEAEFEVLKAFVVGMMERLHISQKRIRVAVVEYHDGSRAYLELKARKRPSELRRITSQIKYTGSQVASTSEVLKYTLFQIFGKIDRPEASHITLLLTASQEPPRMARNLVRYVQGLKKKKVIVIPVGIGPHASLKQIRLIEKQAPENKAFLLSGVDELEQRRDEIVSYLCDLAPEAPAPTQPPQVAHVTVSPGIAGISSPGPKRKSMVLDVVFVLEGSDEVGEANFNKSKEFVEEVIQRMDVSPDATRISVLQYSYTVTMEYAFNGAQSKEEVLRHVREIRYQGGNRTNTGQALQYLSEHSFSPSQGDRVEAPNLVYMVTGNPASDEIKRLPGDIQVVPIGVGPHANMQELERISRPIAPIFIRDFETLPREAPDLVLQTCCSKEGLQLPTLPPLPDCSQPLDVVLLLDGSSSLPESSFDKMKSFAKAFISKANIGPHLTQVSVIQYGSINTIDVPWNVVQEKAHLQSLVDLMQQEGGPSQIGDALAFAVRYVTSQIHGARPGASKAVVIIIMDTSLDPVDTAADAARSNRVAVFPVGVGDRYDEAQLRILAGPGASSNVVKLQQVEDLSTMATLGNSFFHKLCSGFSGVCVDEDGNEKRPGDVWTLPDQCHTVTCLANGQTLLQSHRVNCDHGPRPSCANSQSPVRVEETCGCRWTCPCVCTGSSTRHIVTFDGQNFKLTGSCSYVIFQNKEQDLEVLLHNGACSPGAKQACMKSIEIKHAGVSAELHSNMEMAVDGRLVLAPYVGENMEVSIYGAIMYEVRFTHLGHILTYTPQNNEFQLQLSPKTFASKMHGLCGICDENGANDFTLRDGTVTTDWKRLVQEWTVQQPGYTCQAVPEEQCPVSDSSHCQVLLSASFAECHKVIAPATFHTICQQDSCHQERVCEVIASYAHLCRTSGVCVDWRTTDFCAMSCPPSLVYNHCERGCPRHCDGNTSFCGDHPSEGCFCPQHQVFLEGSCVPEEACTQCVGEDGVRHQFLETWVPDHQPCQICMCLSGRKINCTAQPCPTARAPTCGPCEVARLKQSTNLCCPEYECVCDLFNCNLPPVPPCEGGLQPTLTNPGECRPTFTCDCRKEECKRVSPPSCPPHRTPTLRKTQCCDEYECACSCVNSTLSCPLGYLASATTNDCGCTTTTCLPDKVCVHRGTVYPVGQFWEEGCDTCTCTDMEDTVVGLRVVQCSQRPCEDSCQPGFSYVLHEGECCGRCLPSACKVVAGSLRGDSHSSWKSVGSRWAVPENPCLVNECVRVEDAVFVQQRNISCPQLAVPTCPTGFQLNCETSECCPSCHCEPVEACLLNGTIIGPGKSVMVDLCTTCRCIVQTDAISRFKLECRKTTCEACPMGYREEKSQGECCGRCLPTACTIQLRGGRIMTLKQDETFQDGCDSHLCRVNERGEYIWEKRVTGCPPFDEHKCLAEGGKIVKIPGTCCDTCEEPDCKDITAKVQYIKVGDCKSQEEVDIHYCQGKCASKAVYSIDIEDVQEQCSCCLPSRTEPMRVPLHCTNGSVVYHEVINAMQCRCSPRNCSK

Row | Compound | effect on vWF depolymerizing activity of BAECcm [1] | fold more TSP-1 bound to vWF in the presence of NEM (purified human vWF; 5 or 20 mM NEM, TSP-1 0 to 10 μg per ml, 30 minutes at room temperature, 1M NaCl wash) | second order rate constant of reaction with free thiols [2] | effect on average multimer size of vWF (purified vWF) | effect on average multimer size of vWF (vWF; 37° C., agarose gel electrophoresis) | effect on affinity of vWF for collagen (vWF; collagen binding relative to vWF antigen) | binding of TSP-1 to wells not coated with vWF (purified human vWF; 10 μg per ml TSP-1, wells blocked with BSA) | CBA/vWFAg (average multimer size of plasma vWF) (plasma vWF)
1 | CCN1C(=O)C=CC1=O [NEM, N-ethylmaleimide] | inactivated | Up to 8 fold | ~10^4 M^−1s^−1 | did not have any discernible effect | – | – | – | –
2 | thrombospondin-1 [TSP-1] | – | – | – | – | reduced the average multimer size of vWF | decrease in affinity of vWF for collagen | no binding | 0.83±0.05
